Legend:
[1] = system: Malassezia furfur (ATCC 14521); experiment: Kill Rate Test (KRT) in mDixon broth; type: cell-based
Procedure: Experiments were conducted to investigate the efficacy of the composition of the present invention to inhibit the survival, growth, and proliferation of microorganisms in topical compositions. The test microorganism was Malassezia furfur. The Kill Rate Test (KRT) results are indicative of anti-fungal efficacy. Generally, the greater the inhibition of fungal growth in this test, the better the anti-fungal efficacy of the compound(s) tested. A flask containing mDixon broth medium (see Gueho, et al. Antoinie Leeuwenhoek (1996), no. 69, 337–55, which description is incorporated by reference herein) was inoculated with Malassezia furfur. Specific concentrations of active(s) were then added to the flask Samples were then withdrawn from the flask at specified time points, diluted in sterile water, and spread across the surface of a mDixon agar plate. […] The lower the CFU/ml count, the better activity the active(s) have against M. furfur. […] Experimental Procedure • 1. […] For Mg^2+, Ag^+, Mn ^2+, Bi^3+, and Na^+ Step 8 was repeated at the 24 and 48 hour time points.

[2] = system: Malassezia furfur (ATCC 14521); experiment: Minimum Inhibitory Concentration (MIC) in mDixon agar; type: cell-based; details: for MIC (ppm of metal ion) Alone: M. furfur, 5 days 30°; for MIC (ppm of metal ion) +0.5 ppm ZPT: metal ion in combination with 0.5 ppm ZPT (sub-MIC); for MIC (ppm of metal ion) +2 ppm ZPT: metal ion in combination with 2 ppm ZPT (sub-MIC); for MIC (ppm of metal ion) +4 ppm ZPT: metal ion in combination with 4 ppm ZPT (sub-MIC)
[3] = Table 2(a), 0.05% metal salt (with 10 ppm ZPT where labelled)
[4] = Table 2(a), 0.5% metal salt (with 10 ppm ZPT where labelled)
[5] = Table 2(b), 0.05% metal salt (with 10 ppm ZPT where labelled)
[6] = Table 2(b), 0.5% metal salt (with 10 ppm ZPT where labelled)

For `O=S(=O)([O-])[O-].[Ag+].[Ag+]` [Ag2SO4], the “Plate Area Colonized, 0 Hours” value [1, 3] was 3.97E+06 mm2, the “Plate Area Colonized, 24 Hours” value [1, 3] was 7.46E+05 mm2 and the “Plate Area Colonized, 48 Hours” value [1, 3] was 1.22E+05 mm2. The “Plate Area Colonized, 0 Hours” value [1, 4] was 3.97E+06 mm2, the “Plate Area Colonized, 24 Hours” value [1, 4] was 1.65E+06 mm2 and the “Plate Area Colonized, 48 Hours” value [1, 4] was 1.00E+00 mm2.

With `[Cl][Bi]([Cl])[Cl]` [BiCl3] the “Plate Area Colonized, 0 Hours” value [1, 3] was 3.97E+06 mm2, the “Plate Area Colonized, 24 Hours” value [1, 3] was 1.96E+07 mm2 and the “Plate Area Colonized, 48 Hours” value [1, 3] was 3.03E+06 mm2. For the same compound, the “Plate Area Colonized, 0 Hours” value [1, 4] was 3.97E+06 mm2, the “Plate Area Colonized, 24 Hours” value [1, 4] was 1.11E+06 mm2 and the “Plate Area Colonized, 48 Hours” value [1, 4] was 3.42E+05 mm2.

For `[Cu+2]` [Copper (2+)], the “MIC (ppm of metal ion) Alone” value [2] was 5000 ppm, the “MIC (ppm of metal ion) +0.5 ppm ZPT” value [2] was 5000 ppm and the “MIC (ppm of metal ion) +2 ppm ZPT” value [2] was under 0.5 ppm. For the same compound, the “MIC (ppm of metal ion) +4 ppm ZPT” value [2] was under 0.005 ppm and the “MIC (ppm of metal ion) +4 ppm ZPT” value ([2]; listed as copper ions) was “less than 0.005 ppm”.

With `O=S(=O)([O-])[O-].[Cu+2]` [CuSO4] the “Plate Area Colonized, 0 Hours” value [1, 5] was 2.12E+07 mm2, the “Plate Area Colonized, 4 Hours” value [1, 5] was 9.49E+07 mm2 and the “Plate Area Colonized, 24 Hours” value [1, 5] was 1.81E+08 mm2. The “Plate Area Colonized, 48 Hours” value [1, 5] was 3.32E+08 mm2, the “Plate Area Colonized, 0 Hours” value [1, 6] was 2.12E+07 mm2 and the “Plate Area Colonized, 4 Hours” value [1, 6] was 1.00E+00 mm2. The “Plate Area Colonized, 24 Hours” value [1, 6] was 1.00E+00 mm2 and the “Plate Area Colonized, 48 Hours” value [1, 6] was 1.00E+00 mm2.

For `[Hg+2]` [Mercury (2+)], the “MIC (ppm of metal ion) Alone” value [2] was 50 ppm and the “MIC (ppm of metal ion) +4 ppm ZPT” value [2] was 5 ppm.

`O=S(=O)([O-])[O-].[Mg+2]` [MgSO4] was tested, and the “Plate Area Colonized, 0 Hours” value [1, 3] was 3.97E+06 mm2, the “Plate Area Colonized, 24 Hours” value [1, 3] was 4.35E+06 mm2 and the “Plate Area Colonized, 48 Hours” value [1, 3] was 9.68E+06 mm2. For the same compound, the “Plate Area Colonized, 0 Hours” value [1, 4] was 3.97E+06 mm2, the “Plate Area Colonized, 24 Hours” value [1, 4] was 1.81E+07 mm2 and the “Plate Area Colonized, 48 Hours” value [1, 4] was 9.50E+06 mm2.

In the case of `O=S(=O)([O-])[O-].[Mn+2]` [MnSO4], the “Plate Area Colonized, 0 Hours” value [1, 3] was 3.97E+06 mm2, the “Plate Area Colonized, 24 Hours” value [1, 3] was 1.97E+07 mm2 and the “Plate Area Colonized, 48 Hours” value [1, 3] was 5.91E+06 mm2. For the same compound, the “Plate Area Colonized, 0 Hours” value [1, 4] was 3.97E+06 mm2, the “Plate Area Colonized, 24 Hours” value [1, 4] was 1.16E+05 mm2 and the “Plate Area Colonized, 48 Hours” value [1, 4] was 2.35E+02 mm2.

`O=S(=O)([O-])[O-].[Na+].[Na+]` [Na2SO4] was tested, and the “Plate Area Colonized, 0 Hours” value [1, 3] was 3.97E+06 mm2, the “Plate Area Colonized, 24 Hours” value [1, 3] was 3.75E+07 mm2 and the “Plate Area Colonized, 48 Hours” value [1, 3] was 3.42E+06 mm2. The “Plate Area Colonized, 0 Hours” value [1, 4] was 3.97E+06 mm2, the “Plate Area Colonized, 24 Hours” value [1, 4] was 1.44E+07 mm2 and the “Plate Area Colonized, 48 Hours” value [1, 4] was 2.95E+06 mm2.

`[O-]n1ccccc1=S.[O-]n1ccccc1=S.[Zn+2]` [ZPT, zinc salt of 1-hydroxy-2-pyridinethione, reference compound] was tested, and the “Plate Area Colonized, 0 Hours” value ([1]; Table 2(a), 10 ppm) was 3.97E+06 mm2, the “Plate Area Colonized, 24 Hours” value ([1]; Table 2(a), 10 ppm) was 2.52E+05 mm2 and the “Plate Area Colonized, 48 Hours” value ([1]; Table 2(a), 10 ppm) was 2.30E+03 mm2. For the same compound, the “Plate Area Colonized, 0 Hours” value ([1]; Table 2(b), 10 ppm) was 2.12E+07 mm2, the “Plate Area Colonized, 4 Hours” value ([1]; Table 2(b), 10 ppm) was 3.49E+07 mm2 and the “Plate Area Colonized, 24 Hours” value ([1]; Table 2(b), 10 ppm) was 6.44E+06 mm2. The “Plate Area Colonized, 48 Hours” value ([1]; Table 2(b), 10 ppm) was 4.86E+05 mm2.

With `[Zn+2]` [Zinc (2+)] the “MIC (ppm of metal ion) Alone” value [2] was 5000 ppm, the “MIC (ppm of metal ion) +0.5 ppm ZPT” value [2] was 500 ppm and the “MIC (ppm of metal ion) +2 ppm ZPT” value [2] was 50 ppm. For the same compound, the “MIC (ppm of metal ion) +4 ppm ZPT” value [2] was 5 ppm.

`O=S(=O)([O-])[O-].[Zn+2]` [ZnSO4] was tested, and the “Plate Area Colonized, 0 Hours” value [1, 5] was 2.12E+07 mm2, the “Plate Area Colonized, 4 Hours” value [1, 5] was 8.14E+07 mm2 and the “Plate Area Colonized, 24 Hours” value [1, 5] was 7.22E+07 mm2. The “Plate Area Colonized, 48 Hours” value [1, 5] was 3.44E+08 mm2, the “Plate Area Colonized, 0 Hours” value [1, 6] was 2.12E+07 mm2 and the “Plate Area Colonized, 4 Hours” value [1, 6] was 2.21E+07 mm2. The “Plate Area Colonized, 24 Hours” value [1, 6] was 2.69E+06 mm2 and the “Plate Area Colonized, 48 Hours” value [1, 6] was 1.86E+05 mm2.

Reference: US7026308B1, “Topical anti-microbial compositions” (The Procter & Gamble Company, priority 1999, dated 2006)
